This is an account of results in US8916702B2 (priority 2012, dated 2014).

Molecules are shown by their SMILES. Where two headings read alike, the source gives them in different places.

In the test the test system is HCV pseudoparticles (genotype 1a HCV E1 and E2 envelope, H77C isolate). In words: microbe, parasite or virus in culture. The class given is cell-based. The conditions noted are these: Hepatitis C virus.
Where [1] appears, read: Huh-7, 48 h, read-out: Activity (EC50 class), HCV pseudoparticle infection of Huh7 cells, luciferase 2 days after infection, EC50 expressed as class A/B.
[2] abbreviates: Huh-7, read-out: Activity (EC50 class), HCV pseudoparticles (genotype 1a, H77C) in Huh7 cells, EC50 expressed as class A/B.
The mark [3] stands for this setting: Huh-7, 48 h, read-out: Activity (EC50 class), HCV pseudoparticles, Huh7 cells, luciferase 2 days after infection, average of duplicates.
Setting [4] is: Huh-7, 48 h, HCV pseudoparticles (genotype 1a, H77C) in Huh7 cells, average of duplicate, luciferase 2 days after infection.
[5] abbreviates: Huh-7, 48 h, HCV pseudoparticle infection of Huh7 cells, luciferase 2 days after infection, average of duplicates.

One may read the EC50 as the concentration needed to bring the measured effect to its halfway point. Turning to `COC(=O)[C@@H](CCNC(=O)C(=O)NC(CCO)C1CC1)NC(=O)c1ccc(Nc2nc(NC3(c4ccc(Cl)cc4)CC3)nc(OCC(F)(F)F)n2)cc1` (stereo partly drawn) [Compound 1390], under setting [1], the concentration giving a half-maximal response (EC50) lay in the range of 0.01 to 10 nM.

With `CC(C)(CNC(=O)C(=O)Nc1ccc2c(c1)CCCC2=O)CNC(=O)c1ccc(Nc2nc(NC3(c4ccc(Cl)cc4)CC3)nc(OCC(F)(F)F)n2)cc1` [Compound 3263], the EC50 under setting [2] lay within 0.01 to 10 nM.

With `CN(C)C(=O)C(=O)NC[C@H](NC(=O)c1ccc(Nc2nc(NC3(c4ccc(Cl)cc4)CC3)nc(OCC(F)(F)F)n2)cc1)C(=O)OCCOCCO` [Compound 1023, (S)-2-(2-hydroxyethoxy)ethyl 2-(4-(4-(1-(4-chlorophenyl)cyclopropylamino)-6-(2,2,2-trifluoroethoxy)-1,3,5-triazin-2-ylamino)benzamido)-3-(2-(dimethylamino)-2-oxoacetamido)propanoate], under setting [1], the EC50 fell in the range of 0.01 to 10 nM.

With `O=C(NCCc1cccnc1)C(=O)NCC[C@H](NC(=O)c1ccc(Nc2nc(NC3(c4ccc(Cl)cc4)CC3)nc(OCC(F)(F)F)n2)cc1)C(=O)O` [Compound 1337], the concentration giving a half-maximal response (EC50) under setting [1] fell in the range of 0.01 to 10 nM.

Take `Cc1ccc(NC(=O)C(=O)NCCCCNC(=O)c2ccc(Nc3nc(NC4(c5ccc(Cl)cc5)CC4)nc(OCC(F)(F)F)n3)cc2)cc1` [Compound 3393]: the EC50 under setting [2] was in the range of 0.01 to 10 nM.

On to `O=C(NCCc1cccc(F)c1)C(=O)NC[C@H](NC(=O)c1ccc(Nc2nc(NC3(c4ccc(Cl)cc4)CC3)nc(OCC(F)(F)F)n2)cc1)C(=O)O` [Compound 1401], for which the EC50 under setting [1] lay within 0.01 to 10 nM.

Take `O=C(NC[C@H](NC(=O)c1ccc(Nc2nc(NC3(c4ccc(Cl)cc4)CC3)nc(OCC(F)(F)F)n2)cc1)C(=O)O)C(=O)Nc1cccc(S(=O)(=O)N2CCCCC2)c1` [Compound 3772]: the EC50 runs as follows: (Huh-7, 48 h, HCV pseudoparticles, Huh7 cells, luciferase 2 days after infection, average of duplicates) 7.42 nM; under setting [3], 0.01 to 10 nM.

As to `COC(=O)[C@H](CCNC(=O)C(=O)NCC1CC1)NC(=O)c1ccc(Nc2nc(NC3(c4ccc(Cl)cc4)CC3)nc(OCC(F)(F)F)n2)cc1` [Compound 1196], the EC50 under setting [1] lay within 0.01 to 10 nM.

`CC(C)(CNC(=O)C(=O)Nn1cccc1)CNC(=O)c1ccc(Nc2nc(NC3(c4ccc(Cl)cc4)CC3)nc(OCC(F)(F)F)n2)cc1` [Compound 3242]: the EC50 is 0.03 nM under setting [4] and 0.01 to 10 nM under setting [2].

For `CC(CNC(=O)C(=O)Nc1ccc(F)cc1)CNC(=O)c1ccc(Nc2nc(NC3(c4ccc(Cl)cc4)CC3)nc(OCC(F)(F)F)n2)cc1` (stereo not drawn) [Compound 3335], under setting [2], the 50% effective concentration (EC50) is 0.01 to 10 nM.

For the molecule `COc1cccc(CNC(=O)C(=O)NC[C@H](NC(=O)c2ccc(Nc3nc(NC4(c5ccc(Cl)cc5)CC4)nc(OCC(F)(F)F)n3)cc2)C(=O)O)c1` [Compound 1193], the EC50 is 0.52 nM under setting [5] and 0.01 to 10 nM under setting [1].

With `O=C(NCCc1cccc(F)c1)C(=O)NCC[C@H](NC(=O)c1ccc(Nc2nc(NC3(c4ccc(Cl)cc4)CC3)nc(OCC(F)(F)F)n2)cc1)C(=O)O` [Compound 1333], the EC50 under setting [1] fell in the range of 0.01 to 10 nM.

Regarding `Cc1ccc(NC(=O)C(=O)NCC(C)(C)CNC(=O)c2ccc(Nc3nc(NC4(c5ccc(Cl)cc5)CC4)nc(OCC(F)(F)F)n3)cc2)c(C(F)(F)F)c1` [Compound 3455], under setting [2], the EC50 was in the range of 0.01 to 10 nM.

For `O=C(NCC[C@@H](NC(=O)c1ccc(Nc2nc(NC3(c4ccc(Cl)cc4)CC3)nc(OCC(F)(F)F)n2)cc1)C(=O)O)C(=O)Nc1cccc(F)c1F` [Compound 1530], under setting [1], the EC50 lay within 0.01 to 10 nM.

For the molecule `CCN(CC)CCOc1cccc(NC(=O)C(=O)NC[C@H](NC(=O)c2ccc(Nc3nc(NC4(c5ccc(Cl)cc5)CC4)nc(OCC(F)(F)F)n3)cc2)C(=O)OC)c1` [Compound 3733], the EC50 under setting [3] was 0.01 to 10 nM.

On to `COC(=O)[C@H](CNC(=O)C(=O)Nc1ccc(C(C)C)cc1)NC(=O)c1ccc(Nc2nc(NC3(c4ccc(Cl)cc4)CC3)nc(OCC(F)(F)F)n2)cc1` [Compound 3212], for which the EC50 under setting [2] lay within 0.01 to 10 nM.

For the molecule `COc1cc(NC(=O)C(=O)NCC(C)(C)CNC(=O)c2ccc(Nc3nc(NC4(c5ccc(Cl)cc5)CC4)nc(OCC(F)(F)F)n3)cc2)ccn1` [Compound 3251], under setting [2], the EC50 is 0.01 to 10 nM.

As to `COC(=O)[C@H](CNC(=O)C(=O)Nc1ccc(S(=O)(=O)N2CCCC2)cc1)NC(=O)c1ccc(Nc2nc(NC3(c4ccc(Cl)cc4)CC3)nc(OCC(F)(F)F)n2)cc1` [Compound 3106], under setting [2], the EC50 was in the range of 0.01 to 10 nM.

Take `COc1ccc2nc(NC(=O)C(=O)NCC(C)(C)CNC(=O)c3ccc(Nc4nc(NC5(c6ccc(Cl)cc6)CC5)nc(OCC(F)(F)F)n4)cc3)sc2n1` [Compound 3803]: the EC50 under setting [3] was in the range of 0.01 to 10 nM.

Consider `O=C(NCC[C@H](NC(=O)c1ccc(Nc2nc(NC3(c4ccc(Cl)cc4)CC3)nc(OCC(F)(F)F)n2)cc1)C(=O)O)C(=O)Nc1cccc(C(F)(F)F)c1` [Compound 1271], for which the EC50 under setting [1] was in the range of 0.01 to 10 nM.

Turning to `Cc1ccc(NC(=O)C(=O)NCC(C)(C)CNC(=O)c2ccc(Nc3nc(NC4(c5ccc(Cl)cc5)CC4)nc(OCC(F)(F)F)n3)cc2)c(C)n1` [Compound 3073], under setting [2], the EC50 lay within 0.01 to 10 nM.

`O=C(Nc1cccc(F)c1)C(=O)N[C@H](CCNC(=O)c1ccc(Nc2nc(NC3(c4ccc(Cl)cc4)CC3)nc(OCC(F)(F)F)n2)cc1)C(=O)O` [Compound 3492, (R)-4-(4-((4-((1-(4-chlorophenyl)cyclopropyl)amino)-6-(2,2,2-trifluoroethoxy)-1,3,5-triazin-2-yl)amino)benzamido)-2-(2-((3-fluorophenyl)amino)-2-oxoacetamido)butanoic acid]: the EC50 reads like this: under setting [4], 0.33 nM; under setting [2], 0.01 to 10 nM.

Turning to `CC1CCCC(NC(=O)C(=O)NC[C@H](NC(=O)c2ccc(Nc3nc(NC4(c5ccc(Cl)cc5)CC4)nc(OCC(F)(F)F)n3)cc2)C(=O)O)C1` (stereo partly drawn) [Compound 1087], under setting [1], the EC50 lay within 0.01 to 10 nM.

As to `CC(C)(CNC(=O)C(=O)NC1CCCCCC1)CNC(=O)c1ccc(Nc2nc(NC3(c4ccc(Cl)cc4)CC3)nc(OCC(F)(F)F)n2)cc1` [Compound 1033, N1-(3-(4-(4-(1-(4-chlorophenyl)cyclopropylamino)-6-(2,2,2-trifluoroethoxy)-1,3,5-triazin-2-ylamino)benzamido)-2,2-dimethylpropyl)-N2-cycloheptyloxalamide], under setting [1], the 50% effective concentration (EC50) was in the range of 0.01 to 10 nM.

In the case of `Cc1ccc(NC(=O)C(=O)NCCCNC(=O)c2ccc(Nc3nc(NC4(c5ccc(Cl)cc5)CC4)nc(OCC(F)(F)F)n3)cc2)cc1` [Compound 3358], the EC50 is 0.034 nM under setting [4] and 0.01 to 10 nM under setting [2].

In the case of `COc1cccc(C2CC2CNC(=O)C(=O)NCC[C@H](NC(=O)c2ccc(Nc3nc(NC4(c5ccc(Cl)cc5)CC4)nc(OCC(F)(F)F)n3)cc2)C(=O)O)c1` (stereo partly drawn) [Compound 1423], under setting [1], the EC50 was 0.01 to 10 nM.

With `COC(=O)[C@H](CNC(=O)C(=O)Nc1cccnc1OC)NC(=O)c1ccc(Nc2nc(NC3(c4ccc(Cl)cc4)CC3)nc(OCC(F)(F)F)n2)cc1` [Compound 1240], the EC50 under setting [1] lay within 0.01 to 10 nM.

As to `CCC(CC)CNC(=O)C(=O)NCC[C@H](NC(=O)c1ccc(Nc2nc(NC3(c4ccc(Cl)cc4)CC3)nc(OCC(F)(F)F)n2)cc1)C(=O)OC` [Compound 1202], the EC50 under setting [1] is 0.01 to 10 nM.

Regarding `COc1cc(NC(=O)C(=O)NC[C@H](NC(=O)c2ccc(Nc3nc(NC4(c5ccc(Cl)cc5)CC4)nc(OCC(F)(F)F)n3)cc2)C(=O)O)ccn1` [Compound 1348], the EC50 is 0.5 nM under setting [5] and 0.01 to 10 nM under setting [1].

For the molecule `Cc1nccn1Cc1ccc(NC(=O)C(=O)NCC[C@H](NC(=O)c2ccc(Nc3nc(NC4(c5ccc(Cl)cc5)CC4)nc(OCC(F)(F)F)n3)cc2)C(=O)O)cc1` [Compound 3542], under setting [2], the EC50 fell in the range of 10 to 1000 nM.
